“And” between values parts separate entries of the source, which are not always exact repeats. Equal values may be shown once. One block for each compound: values may come before it.
Experiments:
[1] = molecular target: Dual specificity tyrosine-phosphorylation-regulated kinase 1A (Homo sapiens, UniProt Q13627); assay: Inhibition of DYRK1A (unknown origin)
[2] = molecular target: Acetylcholinesterase (Homo sapiens, UniProt P22303); assay: Inhibition of AChE (unknown origin)
[3] = molecular target: GABA-A receptor; anion channel; assay: Displacement of [3H]flunitrazepam from GABAA (unknown origin ) receptor by radioligand binding assay; format: protein-complex assay, Homo sapiens
[4] = molecular target: T1, Amine oxidase [flavin-containing] A (Homo sapiens, UniProt P21397); assay: Inhibition of MAO-A (unknown origin)
T1 sequence (P21397 whole entry): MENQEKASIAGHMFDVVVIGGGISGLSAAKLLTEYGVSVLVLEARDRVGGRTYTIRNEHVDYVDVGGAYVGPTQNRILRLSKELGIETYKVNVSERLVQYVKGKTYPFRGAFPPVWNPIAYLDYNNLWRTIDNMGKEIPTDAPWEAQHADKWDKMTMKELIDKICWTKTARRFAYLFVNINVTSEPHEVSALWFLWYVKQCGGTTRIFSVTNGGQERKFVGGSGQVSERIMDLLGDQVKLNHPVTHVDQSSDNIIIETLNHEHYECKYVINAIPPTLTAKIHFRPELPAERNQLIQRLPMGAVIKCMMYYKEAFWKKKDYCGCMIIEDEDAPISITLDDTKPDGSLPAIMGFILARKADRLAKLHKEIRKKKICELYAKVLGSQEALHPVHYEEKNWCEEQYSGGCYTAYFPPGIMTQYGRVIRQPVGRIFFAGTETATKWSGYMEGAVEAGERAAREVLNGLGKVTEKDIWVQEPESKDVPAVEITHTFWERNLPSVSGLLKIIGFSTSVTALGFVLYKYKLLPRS

[5] = molecular target: Cholinesterase (Homo sapiens, UniProt P06276); assay: Inhibition of BuChE (unknown origin)
Sequence of Cholinesterase (P06276 whole entry): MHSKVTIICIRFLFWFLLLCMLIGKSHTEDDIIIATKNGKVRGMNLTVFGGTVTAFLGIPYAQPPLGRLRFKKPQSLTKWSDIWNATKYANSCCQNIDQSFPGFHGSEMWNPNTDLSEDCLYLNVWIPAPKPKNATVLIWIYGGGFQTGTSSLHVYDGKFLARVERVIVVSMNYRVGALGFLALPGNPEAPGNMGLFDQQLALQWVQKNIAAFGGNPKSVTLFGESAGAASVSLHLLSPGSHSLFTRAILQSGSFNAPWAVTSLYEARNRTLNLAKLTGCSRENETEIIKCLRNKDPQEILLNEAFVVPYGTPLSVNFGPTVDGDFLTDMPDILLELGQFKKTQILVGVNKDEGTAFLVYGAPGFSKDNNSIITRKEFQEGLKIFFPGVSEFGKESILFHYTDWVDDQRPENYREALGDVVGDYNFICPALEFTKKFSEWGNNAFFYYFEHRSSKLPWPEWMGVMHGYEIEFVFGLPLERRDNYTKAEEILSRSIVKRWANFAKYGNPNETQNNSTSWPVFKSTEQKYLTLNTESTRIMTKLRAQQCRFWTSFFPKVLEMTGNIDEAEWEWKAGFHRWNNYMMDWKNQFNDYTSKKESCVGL

[6] = Inhibition of NMDA receptor (unknown origin); set-up: species or system Homo sapiens
[7] = molecular target: 5-hydroxytryptamine receptor 2A (Rattus norvegicus, UniProt P14842); assay: Displacement of [3H]-ketanserin from rat 5-HT2A expressed in mouse NIH/3T3 cells assessed as inhibition constant by Cheng-Prusoff equation analysis; format: cell-based
Sequence of 5-hydroxytryptamine receptor 2A (Rattus norvegicus, UniProt P14842) (P14842 whole entry): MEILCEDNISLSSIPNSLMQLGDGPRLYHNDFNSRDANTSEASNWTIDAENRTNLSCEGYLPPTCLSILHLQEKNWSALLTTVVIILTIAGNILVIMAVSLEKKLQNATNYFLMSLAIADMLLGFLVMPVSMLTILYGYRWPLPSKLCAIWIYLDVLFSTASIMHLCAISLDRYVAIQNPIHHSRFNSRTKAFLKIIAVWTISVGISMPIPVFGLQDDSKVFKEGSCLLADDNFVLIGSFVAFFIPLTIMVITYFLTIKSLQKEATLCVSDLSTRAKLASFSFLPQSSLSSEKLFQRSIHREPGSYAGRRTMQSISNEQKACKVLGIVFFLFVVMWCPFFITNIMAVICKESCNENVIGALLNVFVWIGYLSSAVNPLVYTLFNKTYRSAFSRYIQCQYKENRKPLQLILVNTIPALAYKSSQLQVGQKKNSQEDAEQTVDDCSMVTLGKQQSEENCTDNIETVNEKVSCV

[8] = molecular target: T2, Amine oxidase [flavin-containing] B (Homo sapiens, UniProt P27338); assay: Inhibition of MAO-B (unknown origin)
T2 sequence (P27338 whole entry): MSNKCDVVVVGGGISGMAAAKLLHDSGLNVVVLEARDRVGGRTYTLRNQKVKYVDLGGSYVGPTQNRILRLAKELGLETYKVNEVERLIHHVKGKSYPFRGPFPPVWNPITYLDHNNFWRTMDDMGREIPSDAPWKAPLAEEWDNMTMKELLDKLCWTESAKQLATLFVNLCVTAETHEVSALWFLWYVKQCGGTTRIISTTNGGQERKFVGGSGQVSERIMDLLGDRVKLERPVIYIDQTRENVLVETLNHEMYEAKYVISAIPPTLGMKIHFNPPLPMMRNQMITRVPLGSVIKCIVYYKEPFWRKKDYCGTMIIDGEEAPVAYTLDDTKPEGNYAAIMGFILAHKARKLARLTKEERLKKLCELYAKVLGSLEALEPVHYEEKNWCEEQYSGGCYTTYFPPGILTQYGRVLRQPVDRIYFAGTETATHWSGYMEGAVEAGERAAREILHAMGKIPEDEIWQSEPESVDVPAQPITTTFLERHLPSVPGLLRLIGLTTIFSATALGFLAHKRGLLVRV

[9] = molecular target: T3, Protein deacetylase HDAC6 (Homo sapiens, UniProt Q9UBN7); assay: Inhibition of HDAC6 (unknown origin)
T3 sequence (Q9UBN7 whole entry): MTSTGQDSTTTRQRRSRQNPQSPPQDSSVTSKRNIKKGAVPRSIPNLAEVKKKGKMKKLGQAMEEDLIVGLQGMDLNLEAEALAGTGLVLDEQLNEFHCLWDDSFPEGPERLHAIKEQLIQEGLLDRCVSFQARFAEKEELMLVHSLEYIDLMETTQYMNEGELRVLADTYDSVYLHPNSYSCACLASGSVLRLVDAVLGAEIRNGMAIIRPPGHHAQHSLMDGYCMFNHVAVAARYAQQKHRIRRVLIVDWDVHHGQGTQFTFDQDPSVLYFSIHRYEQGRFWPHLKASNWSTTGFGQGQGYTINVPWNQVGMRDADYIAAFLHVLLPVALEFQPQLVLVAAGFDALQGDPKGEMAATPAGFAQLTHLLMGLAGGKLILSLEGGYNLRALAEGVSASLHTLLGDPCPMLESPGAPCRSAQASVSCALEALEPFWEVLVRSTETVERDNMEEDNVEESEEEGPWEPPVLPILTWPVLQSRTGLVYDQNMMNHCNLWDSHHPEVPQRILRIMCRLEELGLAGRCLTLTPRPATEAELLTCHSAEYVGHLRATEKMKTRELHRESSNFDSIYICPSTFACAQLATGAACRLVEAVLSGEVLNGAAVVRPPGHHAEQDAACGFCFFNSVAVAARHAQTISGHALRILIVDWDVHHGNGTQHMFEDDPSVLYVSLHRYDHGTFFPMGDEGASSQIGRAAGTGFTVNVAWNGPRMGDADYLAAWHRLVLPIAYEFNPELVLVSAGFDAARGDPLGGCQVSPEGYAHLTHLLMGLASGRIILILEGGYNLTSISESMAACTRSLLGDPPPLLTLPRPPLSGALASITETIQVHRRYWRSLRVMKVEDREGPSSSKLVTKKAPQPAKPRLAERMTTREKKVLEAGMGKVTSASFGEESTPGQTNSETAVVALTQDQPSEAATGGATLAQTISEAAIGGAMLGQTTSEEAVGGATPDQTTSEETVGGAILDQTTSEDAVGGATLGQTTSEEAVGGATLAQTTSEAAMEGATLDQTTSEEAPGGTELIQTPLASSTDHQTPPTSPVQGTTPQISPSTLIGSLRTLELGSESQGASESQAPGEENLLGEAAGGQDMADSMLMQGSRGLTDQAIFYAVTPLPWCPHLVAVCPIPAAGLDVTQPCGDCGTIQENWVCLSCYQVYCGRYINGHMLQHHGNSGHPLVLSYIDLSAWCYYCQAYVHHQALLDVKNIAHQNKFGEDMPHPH

[10] = molecular target: cGMP-specific 3',5'-cyclic phosphodiesterase (Homo sapiens, UniProt O76074); assay: Inhibition of PDE5 (unknown origin)
[11] = molecular target: Histone deacetylase 1 (Homo sapiens, UniProt Q13547); assay: Inhibition of HDAC1 (unknown origin)
Sequence of Histone deacetylase 1 (Q13547 whole entry): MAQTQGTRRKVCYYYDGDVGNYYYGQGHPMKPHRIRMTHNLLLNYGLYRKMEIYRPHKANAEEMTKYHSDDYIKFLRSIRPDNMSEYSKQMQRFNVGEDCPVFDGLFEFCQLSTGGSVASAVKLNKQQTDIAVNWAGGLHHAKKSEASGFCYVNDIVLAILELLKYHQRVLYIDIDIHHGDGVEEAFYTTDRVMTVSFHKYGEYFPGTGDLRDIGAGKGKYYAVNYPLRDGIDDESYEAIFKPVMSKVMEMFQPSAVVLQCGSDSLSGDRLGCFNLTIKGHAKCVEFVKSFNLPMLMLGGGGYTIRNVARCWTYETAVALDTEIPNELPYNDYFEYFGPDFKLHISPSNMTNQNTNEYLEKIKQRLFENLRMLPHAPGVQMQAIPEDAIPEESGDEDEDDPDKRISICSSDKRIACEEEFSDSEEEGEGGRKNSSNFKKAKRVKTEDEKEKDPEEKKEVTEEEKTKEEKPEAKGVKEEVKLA

[12] = molecular target: T4, 5-hydroxytryptamine receptor 2C (Homo sapiens, UniProt P28335); assay: Binding affinity to 5-HT2C (unknown origin) assessed as inhibition constant
T4 sequence (P28335 whole entry): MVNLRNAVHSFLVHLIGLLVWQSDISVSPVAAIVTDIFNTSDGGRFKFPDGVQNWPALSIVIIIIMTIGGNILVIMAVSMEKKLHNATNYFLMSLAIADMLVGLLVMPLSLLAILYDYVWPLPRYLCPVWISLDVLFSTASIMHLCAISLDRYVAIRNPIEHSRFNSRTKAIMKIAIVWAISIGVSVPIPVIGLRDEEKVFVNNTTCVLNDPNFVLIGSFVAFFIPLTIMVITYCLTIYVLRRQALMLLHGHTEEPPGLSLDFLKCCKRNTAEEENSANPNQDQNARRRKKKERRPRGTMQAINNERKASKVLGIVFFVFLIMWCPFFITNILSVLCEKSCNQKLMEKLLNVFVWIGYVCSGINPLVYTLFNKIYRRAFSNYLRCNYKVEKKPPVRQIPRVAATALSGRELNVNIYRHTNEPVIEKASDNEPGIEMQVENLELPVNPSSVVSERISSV

[13] = molecular target: T5, 5-hydroxytryptamine receptor 2B (Homo sapiens, UniProt P41595); assay: Binding affinity to 5-HT2BR (unknown origin) assessed as inhibition constant
T5 sequence (P41595 whole entry): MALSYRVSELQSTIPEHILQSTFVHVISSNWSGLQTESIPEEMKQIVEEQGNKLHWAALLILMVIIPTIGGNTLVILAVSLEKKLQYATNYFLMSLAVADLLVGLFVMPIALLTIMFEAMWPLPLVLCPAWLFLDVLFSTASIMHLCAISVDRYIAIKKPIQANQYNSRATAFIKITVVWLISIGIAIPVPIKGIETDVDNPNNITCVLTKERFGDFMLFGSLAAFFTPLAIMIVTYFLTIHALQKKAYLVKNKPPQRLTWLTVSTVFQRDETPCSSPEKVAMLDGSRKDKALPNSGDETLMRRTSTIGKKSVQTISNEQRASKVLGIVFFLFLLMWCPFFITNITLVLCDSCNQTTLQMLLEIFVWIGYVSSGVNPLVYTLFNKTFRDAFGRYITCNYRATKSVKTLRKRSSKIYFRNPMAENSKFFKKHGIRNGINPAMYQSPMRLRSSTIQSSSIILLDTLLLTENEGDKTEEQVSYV

[14] = molecular target: 5-hydroxytryptamine receptor 5A (Homo sapiens, UniProt P47898); assay: Binding affinity to 5-HT5AR (unknown origin) assessed as inhibition constant
Sequence of 5-hydroxytryptamine receptor 5A (P47898 whole entry): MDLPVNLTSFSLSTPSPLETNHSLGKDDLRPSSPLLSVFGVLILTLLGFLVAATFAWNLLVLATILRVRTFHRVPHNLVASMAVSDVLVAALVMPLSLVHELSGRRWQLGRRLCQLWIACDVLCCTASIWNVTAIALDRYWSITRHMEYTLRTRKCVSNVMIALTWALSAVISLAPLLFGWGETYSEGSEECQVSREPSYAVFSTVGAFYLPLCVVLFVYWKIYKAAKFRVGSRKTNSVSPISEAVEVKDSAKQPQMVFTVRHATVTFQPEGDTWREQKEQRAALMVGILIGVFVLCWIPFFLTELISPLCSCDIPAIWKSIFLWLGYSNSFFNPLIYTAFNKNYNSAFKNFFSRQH

[15] = molecular target: T1, Amine oxidase [flavin-containing] A; assay: Binding affinity to MAO-A (unknown origin) assessed as inhibition constant
[16] = molecular target: Amyloid-beta precursor protein (Homo sapiens) (UniProt P05067); assay: Inhibition of amyloid beta (unknown origin) aggregation at 25 uM relative to control
Sequence of Amyloid-beta precursor protein (Homo sapiens) (P05067 whole entry): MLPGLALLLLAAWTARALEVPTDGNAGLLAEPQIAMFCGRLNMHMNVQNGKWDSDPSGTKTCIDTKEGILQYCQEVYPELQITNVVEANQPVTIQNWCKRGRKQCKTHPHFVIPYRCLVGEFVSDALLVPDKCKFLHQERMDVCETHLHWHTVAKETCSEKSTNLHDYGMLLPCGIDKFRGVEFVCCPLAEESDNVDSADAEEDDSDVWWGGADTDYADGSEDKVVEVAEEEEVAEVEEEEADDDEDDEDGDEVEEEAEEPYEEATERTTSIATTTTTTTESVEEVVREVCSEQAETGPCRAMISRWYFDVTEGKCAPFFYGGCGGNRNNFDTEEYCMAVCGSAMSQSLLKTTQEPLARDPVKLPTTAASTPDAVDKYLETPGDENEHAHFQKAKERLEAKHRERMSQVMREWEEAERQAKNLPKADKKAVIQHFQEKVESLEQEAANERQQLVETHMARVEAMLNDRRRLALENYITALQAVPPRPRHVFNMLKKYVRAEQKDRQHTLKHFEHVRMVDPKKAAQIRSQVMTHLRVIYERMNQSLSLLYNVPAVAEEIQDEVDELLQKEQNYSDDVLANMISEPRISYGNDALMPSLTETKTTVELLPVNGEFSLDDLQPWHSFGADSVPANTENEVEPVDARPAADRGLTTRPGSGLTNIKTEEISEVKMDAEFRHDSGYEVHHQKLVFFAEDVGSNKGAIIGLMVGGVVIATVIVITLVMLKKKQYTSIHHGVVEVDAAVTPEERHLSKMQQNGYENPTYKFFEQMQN

[17] = molecular target: Histone deacetylase; assay: Inhibition of HDAC (unknown origin); format: protein assay, Homo sapiens
[18] = molecular target: T5, 5-hydroxytryptamine receptor 2B; assay: Binding affinity to 5-HT2B (unknown origin) assessed as equilibrium binding constant
[19] = molecular target: 5-hydroxytryptamine receptor 2B (Rattus norvegicus, UniProt P30994); assay: Displacement of [3H]-ketanserin from rat 5-HT2B expressed in mouse NIH/3T3 cells assessed as inhibition constant by Cheng-Prusoff equation analysis; format: cell-based
Sequence of 5-hydroxytryptamine receptor 2B (Rattus norvegicus, UniProt P30994) (P30994 whole entry): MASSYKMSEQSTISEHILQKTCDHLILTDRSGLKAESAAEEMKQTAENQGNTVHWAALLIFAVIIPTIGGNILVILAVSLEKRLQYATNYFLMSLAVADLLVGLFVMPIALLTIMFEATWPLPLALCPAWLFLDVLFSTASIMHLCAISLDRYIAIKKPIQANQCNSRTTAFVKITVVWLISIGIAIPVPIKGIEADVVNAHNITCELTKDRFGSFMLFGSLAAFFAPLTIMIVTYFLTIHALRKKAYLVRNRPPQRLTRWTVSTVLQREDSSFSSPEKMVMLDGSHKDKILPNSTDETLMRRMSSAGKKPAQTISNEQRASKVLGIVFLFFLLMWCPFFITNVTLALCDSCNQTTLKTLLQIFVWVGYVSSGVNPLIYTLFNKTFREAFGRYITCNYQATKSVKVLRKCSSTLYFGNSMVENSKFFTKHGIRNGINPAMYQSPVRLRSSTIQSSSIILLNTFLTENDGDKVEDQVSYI

[20] = molecular target: Glycogen synthase kinase-3 beta (Homo sapiens, UniProt P49841); assay: Inhibition of GSK-3beta (unknown origin)
Sequence of Glycogen synthase kinase-3 beta (P49841 whole entry): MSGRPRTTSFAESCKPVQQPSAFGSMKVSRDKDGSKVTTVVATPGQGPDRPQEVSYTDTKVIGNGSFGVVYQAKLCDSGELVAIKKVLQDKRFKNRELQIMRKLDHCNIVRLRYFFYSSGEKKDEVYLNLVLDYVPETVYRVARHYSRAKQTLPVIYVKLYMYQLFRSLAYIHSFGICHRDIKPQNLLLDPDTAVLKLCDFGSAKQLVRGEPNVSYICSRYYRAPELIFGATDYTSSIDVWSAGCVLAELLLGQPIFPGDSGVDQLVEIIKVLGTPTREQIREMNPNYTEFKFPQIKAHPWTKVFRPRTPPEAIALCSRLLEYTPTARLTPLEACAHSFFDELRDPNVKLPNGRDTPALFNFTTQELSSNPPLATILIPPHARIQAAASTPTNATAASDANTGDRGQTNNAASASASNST

[21] = molecular target: T6, 5-hydroxytryptamine receptor 3A (Homo sapiens, UniProt P46098); assay: Binding affinity to 5-HT3R (unknown origin) assessed as inhibition constant
T6 sequence (P46098 whole entry): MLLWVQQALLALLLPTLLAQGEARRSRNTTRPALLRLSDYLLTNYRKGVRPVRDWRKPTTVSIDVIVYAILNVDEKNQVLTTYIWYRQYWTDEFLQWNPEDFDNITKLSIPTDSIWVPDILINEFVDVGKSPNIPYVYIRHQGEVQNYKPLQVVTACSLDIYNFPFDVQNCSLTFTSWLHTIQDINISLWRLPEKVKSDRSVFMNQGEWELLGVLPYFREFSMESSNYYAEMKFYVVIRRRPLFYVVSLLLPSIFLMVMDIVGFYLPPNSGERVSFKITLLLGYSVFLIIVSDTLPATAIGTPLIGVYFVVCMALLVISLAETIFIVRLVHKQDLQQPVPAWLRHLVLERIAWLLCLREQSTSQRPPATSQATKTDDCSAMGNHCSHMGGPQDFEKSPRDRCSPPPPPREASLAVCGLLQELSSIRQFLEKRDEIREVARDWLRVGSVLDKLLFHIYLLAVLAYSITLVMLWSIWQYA

[22] = molecular target: 5-hydroxytryptamine receptor 2A (Homo sapiens, UniProt P28223); assay: Displacement of [3H]-LSD from human 5-HT2A expressed in human HEK cells assessed as inhibition constant by FLIPR assay; format: cell-based

Sequence of Acetylcholinesterase (P22303 whole entry): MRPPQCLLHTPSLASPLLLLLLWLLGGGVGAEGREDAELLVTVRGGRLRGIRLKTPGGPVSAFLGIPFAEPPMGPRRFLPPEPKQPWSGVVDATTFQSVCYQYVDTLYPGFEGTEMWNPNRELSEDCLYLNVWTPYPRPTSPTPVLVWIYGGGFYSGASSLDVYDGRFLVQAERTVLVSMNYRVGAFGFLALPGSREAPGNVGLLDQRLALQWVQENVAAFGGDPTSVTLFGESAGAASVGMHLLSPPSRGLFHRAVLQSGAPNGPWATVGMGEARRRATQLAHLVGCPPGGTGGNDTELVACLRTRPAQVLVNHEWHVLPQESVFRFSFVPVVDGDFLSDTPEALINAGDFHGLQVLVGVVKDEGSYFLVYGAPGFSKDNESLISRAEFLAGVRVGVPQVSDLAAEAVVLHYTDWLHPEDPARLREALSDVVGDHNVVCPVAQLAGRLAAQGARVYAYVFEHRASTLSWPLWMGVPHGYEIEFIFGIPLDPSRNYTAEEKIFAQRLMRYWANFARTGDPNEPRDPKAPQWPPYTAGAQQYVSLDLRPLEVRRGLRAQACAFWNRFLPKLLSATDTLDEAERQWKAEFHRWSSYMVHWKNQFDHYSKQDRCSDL

Compound: Cc1nccc2c1[nH]c1ccccc12 [HARMAN]
- IC50 [1]: > 1800 nM
- IC50 [2]: > 10000 nM
- IC50 [3]: 2500 nM
- IC50 [4]: 29 nM
- IC50 [5]: > 10000 nM

Compound: C[n+]1ccc2c3ccccc3n(CCc3ccccc3)c2c1
- IC50 [6]: 5000 nM
- IC50 [2]: 0.5 nM
- IC50 [5]: 5000 nM

Compound: CCCCn1c2cc(OCc3cn(Cc4ccccc4Cl)nn3)ccc2c2ccnc(C)c21
- IC50 [8]: 360 nM
- IC50 [4]: 430 nM

Compound: c1ccc2c(c1)[nH]c1cnccc12 [NORHARMANE]
- IC50 [1]: > 1800 nM
- IC50 [2]: > 40000 nM
- IC50 [3]: 1600 nM
- IC50 [5]: > 40000 nM

Compound: COc1ccc2c3c(n(C)c2c1)C(C)=[N+](C)CC3
- Ki [15]: 140 nM

Compound: COc1ccc2c3cc[n+](C)c(C)c3n(C)c2c1
- Ki [15]: 69 nM and 15 nM

Compound: c1ccc2c(c1)[nH]c1c[n+](CCCCCCCCCCCC[n+]3ccc4c(c3)[nH]c3ccccc34)ccc12
- IC50 [6]: 1800 nM
- IC50 [2]: 86000 nM
- IC50 [5]: 1800 nM

Compound: COc1ccc(CC2NCCc3c2[nH]c2cc(C)c(C)cc32)cc1OC (stereo unspecified)
- Ki [7]: 5 nM
- Kb [18]: < 0.3 nM and 0.08 nM
- Ki [19]: 0.2 nM

Compound: Brc1cccc2[nH]c3c(c12)CCNC3
- Ki [7]: < 180 nM

Compound: Oc1cccc2c1[nH]c1c(C3=C[C@@]4(O)CC/C=C\CCCCN5CCC3[C@]3(C[C@@H]6/C=C\CCCCN6[C@H]34)C5)nccc12 (stereo partly specified)
- IC50 [20]: 4800 nM

Compound: COc1ccc2[nH]c3c(c2c1)CCN=C3C
- Ki [21]: > 10000 nM
- Ki [22]: 4200 nM
- Ki [14]: > 10000 nM

The remaining lines, values ahead:

- Ki [7]: 44 nM
Compound: C=CC(=O)N1CCc2c(n(CCCCN3CCN(c4ccccc4OC)CC3)c3ccccc23)C1

- IC50 [8]: 34000 nM
Compound: COC(=O)C1=CN2CCc3c([nH]c4ccccc34)[C@@H]2C[C@H]1C1=CCOC1=O

- IC50 [9]: 80 nM
- IC50 [10]: 310 nM
- IC50 [11]: 80 nM
Compound: O=C(NO)c1cnc(N2CCC(CN3CC(=O)N4C(Cc5c([nH]c6ccccc56)C4c4ccc5c(c4)OCO5)C3=O)CC2)nc1 (stereo unspecified)

- Ki [12]: 170 nM
- Ki [13]: 170 nM
- Ki [14]: 170 nM
Compound: c1ccc2c(-c3nccc4c3[nH]c3ccccc34)c[nH]c2c1

- inhibition [16]: 93%
Compound: CCCCc1ccc[n+](CC(=O)Nc2ccc3cc4c5[nH]c6ccccc6c5ccn4c(=O)c3c2)c1

- IC50 [17]: 9.1 nM
- IC50 [10]: 126 nM
Compound: O=C(CCCCCCN1CC(=O)N2[C@H](c3ccc(Cl)cc3)c3[nH]c4ccccc4c3C[C@@H]2C1=O)NO

- IC50 [17]: 61 nM
- IC50 [10]: 7 nM
Compound: O=C(CCCCCN1CC(=O)N2[C@H](c3ccc(Br)cc3)c3[nH]c4ccccc4c3C[C@@H]2C1=O)NO

- IC50 [8]: 130000 nM
- IC50 [4]: 870 nM
Compound: C/C=C(\C=O)[C@@H]1C[C@H]2c3[nH]c4ccccc4c3CCN2C=C1C(=O)OC [ISOVALLESIACHOTAMINE]

- Ki [12]: 200 nM
- Ki [13]: 100 nM
- Ki [14]: 100 nM
Compound: COc1ccc2[nH]c3c(-c4cn(C)c5ccccc45)nccc3c2c1

- IC50 [17]: 61 nM
- IC50 [10]: 7 nM
Compound: O=C(CCCCN1CC(=O)N2[C@H](c3ccc(Br)cc3)c3[nH]c4ccccc4c3C[C@@H]2C1=O)NO

- Ki [12]: 170 nM
- Ki [13]: 170 nM
- Ki [14]: 170 nM
Compound: Oc1ccc2[nH]c3c(-c4c[nH]c5ccccc45)nccc3c2c1

- inhibition [16]: 93%
Compound: CCCc1ccc[n+](CC(=O)Nc2ccc3cc4c5[nH]c6ccccc6c5ccn4c(=O)c3c2)c1
